{
  "source": "paper PMC10296061",
  "about": "“Inhibition of the Mitochondrial Carnitine/Acylcarnitine Carrier by Itaconate through Irreversible Binding to Cysteine 136: Possible Pathophysiological Implications” (Biomolecules, 2023)",
  "key": {"recombinant CAC (WT)": {"molecular_target": "T1, recombinant CAC (WT) (Rattus norvegicus, UniProt P97521)", "T1 construct": "made in house; host or cells: E. coli C0214", "T1 sequence (P97521 1-301)": "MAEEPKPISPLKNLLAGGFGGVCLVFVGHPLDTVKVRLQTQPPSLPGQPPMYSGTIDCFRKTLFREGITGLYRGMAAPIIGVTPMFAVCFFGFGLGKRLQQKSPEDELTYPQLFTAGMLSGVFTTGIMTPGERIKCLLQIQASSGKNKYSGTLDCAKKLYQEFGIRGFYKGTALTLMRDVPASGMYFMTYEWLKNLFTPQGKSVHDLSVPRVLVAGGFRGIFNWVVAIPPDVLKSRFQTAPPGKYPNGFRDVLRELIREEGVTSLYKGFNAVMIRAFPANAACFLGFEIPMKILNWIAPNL", "experiment": "[3H]carnitine/carnitine antiport in proteoliposomes reconstituted with recombinant WT CAC", "format": "biochemical", "description": "As previously described, the pMW7-WTratCAC recombinant plasmid was used for over-expressing the rat CAC [22]. The overlap extension method was used to introduce the mutations; in the main time, NdeI and HindIII restriction sites were also added using appropriate primers. The PCR products were purified by the QIAEX II Gel Extraction Kit (QIAGEN) and digested with NdeI and HindIII and then ligated into the pMW7. All mutations were verified by DNA sequencing. The resulting plasmid constructs were transformed into E. coli C0214. Overexpression, inclusion body fraction preparation, and purification of the CAC proteins were performed as previously described.\n(§1) As previously described, recombinant CAC (WT and mutants) and ORC1 proteins were used for proteoliposome formation. For experiments with native CAC, ORC1, or ANT proteins, rat liver mitochondria, or HeLa cell mitochondria, the latter for the CAC alone, were first purified using the standard procedure of cell disruption and differential centrifugation. Then proteins were extracted using 3% Triton X-100 and reconstituted as described for the recombinant proteins. The concentration of intraliposomal carnitine and ornithine was 15 mM and 30 mM, respectively, in all samples.\nTo test the transport activity of the CAC, 550 μL of proteoliposomes was passed through a Sephadex G-75 column to remove the external substrate. Six hundred μL of the turbid eluate was collected, divided into samples of 100 μL each, and used for transport measurement by the inhibitor-stop method. Transport was started by adding 0.1 mM [^3H]carnitine ([^3H]ornitine or [^3H]ATP) to proteoliposome samples and stopped with 1.5 mM NEM (N-ethylmaleimide) at the indicated time interval. In the control samples, NEM was added with the labeled substrate at time zero. Transport rates were measured in 10 min, i.e., within the initial linear range of the time course, at 25 °C. After terminating the transport reaction, the external substrate was removed by chromatography on the Sephadex G-75 column, and the intraliposomal radioactivity was measured. The experimental values were corrected by subtracting the controls.\nFigure 1 Effect of itaconate on the native and recombinant mitochondrial carnitine/acylcarnitine (CAC). Dose–response analysis for itaconate inhibition was carried out using proteoliposomes reconstituted with native (○) or recombinant (●) CAC carriers. After 10 min of itaconate incubation, transport activity was started by adding 0.1 mM [^3H]carnitine and stopped after 10 min as described in Section 2. Percent of residual activity with respect to the control, without itaconate treatment, was reported. The values are the means ± SD from three independent experiments.\nFigure 2 Effect of different pH on the inhibition of CAC protein by itaconate. (a) Proteoliposomes reconstituted with the recombinant CAC were incubated at various pHs (range pH 6.5–8.5) for 10 min with 10 mM itaconate. (b) Dose–response analysis of inhibition by itaconate of the recombinant CAC at pH 6.5. was performed. Proteoliposomes were incubated for 10 min at pH 6.5 with itaconate at the indicated concentrations. In both (a,b), the transport activity was measured for 10 min by adding to proteoliposomes 0.1 mM [^3H]carnitine."}, "[1]": {"molecular_target": "T2, native ornithine/citrulline carrier (ORC, SLC25A15) (Rattus norvegicus, UniProt A0A0G2K309)", "T2 construct": "from tissue; host or cells: rat liver mitochondria", "T2 sequence (A0A0G2K309 1-301)": "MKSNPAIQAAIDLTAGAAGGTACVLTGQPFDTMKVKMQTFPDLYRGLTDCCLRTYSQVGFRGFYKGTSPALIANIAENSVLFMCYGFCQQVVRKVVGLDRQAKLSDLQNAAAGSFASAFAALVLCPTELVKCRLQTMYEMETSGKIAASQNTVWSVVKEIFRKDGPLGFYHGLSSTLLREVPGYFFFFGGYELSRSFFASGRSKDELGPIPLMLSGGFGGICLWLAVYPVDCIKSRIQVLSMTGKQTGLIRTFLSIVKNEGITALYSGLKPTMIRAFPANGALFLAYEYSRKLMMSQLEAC", "experiment": "[3H]ornithine transport in proteoliposomes reconstituted with native ORC", "format": "biochemical", "conditions": "read-out: IC50 for itaconate inhibition", "description": "as §1\nTo test the transport activity of the CAC, 550 μL of proteoliposomes was passed through a Sephadex G-75 column to remove the external substrate. […] Transport rates were measured in 10 min, i.e., within the initial linear range of the time course, at 25 °C. After terminating the transport reaction, the external substrate was removed by chromatography on the Sephadex G-75 column, and the intraliposomal radioactivity was measured. […]\nFigure 3 Identification of residue responsible for itaconate inhibition. […] Transport activity of the WT (○), C136A (●), C155A (Δ), C23V/C58V/C89S/C155V/C283S (▲), and C23V/C58V/C89S/C136V/C155V/C283S (□) was measured by adding 0.1 mM [^3H]carnitine after treatment by itaconate at the indicated concentrations. […]"}},
  "note": "Read-outs that look alike come from different tables or passages of the source.",
  "data": [
    {"smiles": "C=C(CC(=O)O)C(=O)O", "note": "[itaconate]", "values": [
      {"measurement": "reversal of inhibition by the reducing agent DTE", "setting": "recombinant CAC (WT); 10 mM itaconate pre-incubation 10 min, 25 mM DTE, transport 30 min", "result": "not able to reverse the inhibition"},
      {"measurement": "inhibition at 10000 µM", "setting": "recombinant CAC (WT); 10 mM itaconate, 10 min, pH 6.5, read-out: inhibition of transport", "result": "~80", "unit": "%"},
      {"measurement": "inhibition of transport", "setting": "recombinant CAC (WT); 10 mM itaconate, 10 min, pH 8.0 and pH 8.5", "result": "Virtually no inhibition"},
      {"measurement": "inhibition at 10000 µM", "setting": "recombinant CAC (WT); 10 mM itaconate, pH 7.0, 10 min, without carnitine, unreacted compound removed by G-75, read-out: inhibition compared to the control", "result": "~55", "unit": "%"},
      {"measurement": "type of inhibition", "setting": "recombinant CAC (WT); WT, double reciprocal plot", "result": "non-competitive inhibition"},
      {"measurement": "Ki", "setting": "recombinant CAC (WT); pH 7.0, 10 mM itaconate, Lineweaver-Burk plot", "result": "14 ± 2.6", "unit": "mM"},
      {"measurement": "IC50", "setting": "recombinant CAC (WT); recombinant CAC, 10 min incubation, 0.1 mM [3H]carnitine, pH 7.0, read-out: IC50 for itaconate inhibition of transport", "result": "8.4 ± 2.9", "unit": "mM"},
      {"measurement": "IC50", "setting": "recombinant CAC (WT); recombinant WT CAC, pH 6.5, 10 min incubation, read-out: IC50 for inhibition of transport at pH 6.5", "result": "3.8 ± 1", "unit": "mM"},
      {"measurement": "IC50", "setting": "[1]", "result": "52 ± 5.5", "unit": "mM"}
    ]}
  ]
}
